One assay has as its target Chk-1 kinase (Homo sapiens (Human), UniProt O14757). Nature of the assay: Chk-1 Kinase Inhibiting Activity (33P-ATP filter assay, CHKtide substrate). The format is biochemical. Particulars: against Chk-1 kinase; read-out: IC50. The method, then:
Chk-1 Kinase Inhibiting Activity
The compounds of the invention were tested for activity against Chk-1 kinase using the materials and protocols set out below.
Base Reaction buffer: 20 mM Hepes (pH 7.5), 10 mM MgCl2, 1 mM EGTA, 0.02% Brij35, 0.02 mg/ml BSA, 0.1 mM Na3VO4, 2 mM DTT, 1% DMSO
*Required cofactors are added individually to each kinase reaction
(i) Prepare indicated substrate in freshly prepared Base Reaction Buffer
(ii) Deliver any required cofactors to the substrate solution above
(iii) Deliver indicated kinase into the substrate solution and gently mix
(iv) Deliver compounds in DMSO into the kinase reaction mixture
(v) Deliver ^33P-ATP (specific activity 0.01 μCi/μl final) into the reaction mixture to initiate the reaction.
(vi) Incubate kinase reaction for 120 minutes at room temperature
(vii) Reactions are spotted onto P81 ion exchange paper (Whatman #3698-915)
(viii) Wash filters extensively in 0.1% phosphoric acid.
(ix) Dry filters and measure counts in scintillation counter
Recombinant full length construct, N-terminal GST tagged, purified from insect cells.
No special measures were taken to activate this kinase.
Final concentration in assay=0.5 nM
Peptide sequence: [[…]]
Final concentration in assay=20 μM
No additional cofactors are added to the reaction mixture
From the results obtained by following the above protocol, the IC50 values against Chk-1 kinase of each of the compounds of Examples 1-153 were determined and these are shown in Table 3.

The subject of another assay is MIA PaCa-2 cells. The assay is described as follows: Gemcitabine Combination Cell Assay (Cell Titer Glo). In kind it is cell-based. Particulars: for IC50: Homo sapiens; for 10xLS: approximate concentration of Chk1 inhibitor that results in a 10-fold reduction in the IC50 of gemcitabine alone; for 2xLS: approximate concentration of Chk1 inhibitor that results in a two-fold reduction in the IC50 of gemcitabine alone. On the procedure:
Gemcitabine Combination Cell Assay
Exponentially growing MIA PaCa-2 (ATCC CRL-1420) cells are treated with trypsin to remove cells from the plate surface. Approximately 10,000 cells/well are plated in 96 well plates in RPMI containing 10% fetal bovine serum, 1% sodium pyruvate and 1% L-GlutaMax. Cells are allowed to adhere to the plate surface overnight. Serial half-log dilutions of Chk1 inhibitor test compounds and gemcitabine are made with a final highest concentration of 3000 nM and 100 nM, respectively. Chk1 inhibitors and gemcitabine are combined so that each concentration of Chk1 inhibitor is added to each concentration of gemcitabine. Each drug is also tested as a single agent. Drugs are added to adherent cells (in duplicate) and incubated for 72 h. At 72 h the cells are treated with Promega Cell Titer Glo reagent for approximately 15 minutes. Luminescence (relative light units, RLU) is recorded using a BMG Polarstar Omega plate reader. The single agent concentration that results in a 50% reduction in total signal (IC50) is calculated using PRISM software and a four-parameter non-linear regression curve fit. For combination studies the RLUs are plotted using PRISM on an XY plot with the gemcitabine concentration on the X axis and RLU on the Y axis. The RLU for each concentration of Chk1 inhibitor is plotted as a function of gemcitabine concentration. The IC50 for gemcitabine alone and at each concentration of Chk1 is determined using a four-parameter non-linear regression curve fit. The approximate concentration of Chk1 inhibitor that results in a two and ten-fold reduction in the IC50 of gemcitabine alone is calculated as an indication of synergistic potency.
From the results obtained by following the above protocol, the IC50 values against MIAPaca-2 cells of the Chk1 inhibitor alone (Chk1 IC50), the approximate concentration of Chk1 inhibitor that results in a two-fold (2×LS) and a 10-fold (10×LS) reduction in the IC50 of gemcitabine alone of each of the compounds of Examples 1-154 are shown in Table 4.
A general note: ATP-based viability assays read luminescence as a measure of living cells.

Setting [1] is: Chk1 inhibitor alone, MIA PaCa-2 cells, 72 h, read-out: Chk1 IC50.
The mark [2] stands for this setting: MIA PaCa-2, 72 h, read-out: Chk1 IC50 (nM).

Counter-ions that a name gives are not always drawn. Like-named read-outs stand apart in the source and are kept apart here.

The source of these data is patent publication US10010547B2 (CASCADIAN THERAPEUTICS, INC., priority 2014, dated 2018).

Chk-1 kinase, sequence (O14757 whole entry): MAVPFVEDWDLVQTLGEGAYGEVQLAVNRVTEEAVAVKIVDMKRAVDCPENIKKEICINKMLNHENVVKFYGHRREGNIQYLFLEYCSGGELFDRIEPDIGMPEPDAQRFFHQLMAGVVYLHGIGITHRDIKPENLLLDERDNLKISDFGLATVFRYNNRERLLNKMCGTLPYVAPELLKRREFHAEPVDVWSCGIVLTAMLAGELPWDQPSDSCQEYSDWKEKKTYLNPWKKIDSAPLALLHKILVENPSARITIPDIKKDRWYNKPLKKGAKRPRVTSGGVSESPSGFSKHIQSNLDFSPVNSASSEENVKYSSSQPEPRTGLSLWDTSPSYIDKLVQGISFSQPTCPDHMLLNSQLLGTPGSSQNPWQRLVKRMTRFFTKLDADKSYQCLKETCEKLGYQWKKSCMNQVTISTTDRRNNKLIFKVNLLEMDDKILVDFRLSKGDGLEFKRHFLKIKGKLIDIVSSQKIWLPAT

With `COc1cc(CNCc2ccc(F)cc2)ccc1-c1cc(Nc2cnc(C#N)cn2)n[nH]1` [Example 8, 5-(5-{4-[(4-fluoro-benzylamino)-methyl]-2-methoxy-phenyl}-1H-pyrazol-3-ylamino)-pyrazine-2-carbonitrile], the IC50 at Chk-1 kinase worked out at 0.058 nM. Besides, the half-inhibitory concentration (IC50) with MIA PaCa-2 cells (setting [1]) was found to be 259 nM. Besides, in the assay on MIA PaCa-2 cells (MIA PaCa-2 cells, 72 h), the “10xLS” value was roughly 200 nM and the “2xLS” value was determined as 10 nM.

As to `COc1cc(CNCCN2CCOCC2)ccc1-c1cc(Nc2cnc(C#N)cn2)n[nH]1` [Example 9, 5-(5-{2-methoxy-4-[(2-morpholin-4-yl-ethylamino)-methyl]-phenyl}-1H-pyrazol-3-ylamino)-pyrazine-2-carbonitrile], the half-inhibitory concentration (IC50) at Chk-1 kinase worked out at 0.077 nM. Besides, the 50% inhibitory concentration (IC50) with MIA PaCa-2 cells (setting [1]) came out at 227 nM. In the assay on MIA PaCa-2 cells (MIA PaCa-2 cells, 72 h), the “10xLS” value is on record as 100 nM and the “2xLS” value is 3 nM.

Consider `COc1cc(CNCCN2CCOCC2)ccc1-c1cc(Nc2cnccn2)n[nH]1` [Example 10, (5-{2-methoxy-4-[(2-morpholin-4-yl-ethylamino)-methyl]-phenyl}-1H-pyrazol-3-yl)-pyrazin-2-yl-amine], for which the concentration for half-maximal inhibition (IC50) at Chk-1 kinase was 11 nM. For the same molecule, the IC50 with MIA PaCa-2 cells (setting [1]) was greater than 3000 nM. Further, in the assay on MIA PaCa-2 cells (MIA PaCa-2 cells, 72 h), the “10xLS” value is greater than 3000 nM and the “2xLS” value worked out at 1000 nM.

For `COc1cc(C2CCN(C)CC2)ccc1-c1cc(Nc2cnc(C#N)cn2)n[nH]1` [Example 11, 5-{5-[2-Methoxy-4-(1-methyl-piperidin-4-yl)-phenyl]-1H-pyrazol-3-ylamino}-pyrazine-2-carbonitrile hydrochloride], the 50% inhibitory concentration (IC50) at Chk-1 kinase amounted to 0.048 nM; in the assay with MIA PaCa-2 cells (setting [2]), 214 nM. Also, the “10xLS” value in the assay on MIA PaCa-2 cells (MIA PaCa-2 cells, 72 h) is less than 100 nM. Besides, the “2xLS” value in the assay with MIA PaCa-2 cells (MIA PaCa-2 cells, 72 h) is listed as 3 nM.

Take `COc1cc(CNCC2CCN(C(=O)C3CC3)CC2)ccc1-c1cc(Nc2cnc(C#N)cn2)n[nH]1` [Example 12, 5-[5-(4-{[(1-cyclopropane-carbonyl-piperidin-4-ylmethyl)-amino]-methyl}-2-methoxy-phenyl)-1 H-pyrazol-3-ylamino]-pyrazine-2-carbonitrile]: the IC50 on Chk-1 kinase came out at 0.034 nM; in the assay with MIA PaCa-2 cells (setting [1]), 264 nM. In the assay with MIA PaCa-2 cells (MIA PaCa-2 cells, 72 h), the “10xLS” value was roughly 50 nM. In addition, the “2xLS” value in the assay with MIA PaCa-2 cells (MIA PaCa-2 cells, 72 h) is less than 3 nM.

In the case of `COc1cc(CNC2CCOCC2)ccc1-c1cc(Nc2cnc(C#N)cn2)n[nH]1` [Example 14, 5-[[5-[2-Methoxy-4-[(tetrahydropyran-4-ylamino)methyl]phenyl]-1H-pyrazol-3-yl]amino]pyrazine-2-carbonitrile hydrochloride], on Chk-1 kinase, the 50% inhibitory concentration (IC50) stood at 0.026 nM. Also, the half-maximal inhibitory concentration (IC50) in the assay with MIA PaCa-2 cells (setting [2]) was determined as 894 nM. For the same molecule, in the assay on MIA PaCa-2 cells (MIA PaCa-2 cells, 72 h), the “10xLS” value was roughly 50 nM and the “2xLS” value is less than 3 nM.

On to `COc1cc(CN(C)CCN2CCOCC2)ccc1-c1cc(Nc2cnc(C#N)cn2)n[nH]1` [Example 15, 5-[[5-[2-methoxy-4-[[methyl(2-morpholinoethyl)amino]methyl]phenyl]-1H-pyrazol-3-yl]amino]pyrazine-2-carbonitrile], for which the IC50 on Chk-1 kinase was determined as 0.3 nM. For the same molecule, the IC50 with MIA PaCa-2 cells (setting [1]) amounted to 2210 nM. Further, in the assay with MIA PaCa-2 cells (MIA PaCa-2 cells, 72 h), the “10xLS” value is roughly 3000 nM and the “2xLS” value is given as roughly 5 nM.

For the molecule `COc1cc(NCCN2CCOCC2)ccc1-c1cc(Nc2cnc(C#N)cn2)n[nH]1` [Example 16, 5-[[5-[2-methoxy-4-(2-morpholinoethylamino)phenyl]-1H-pyrazol-3-yl]amino]pyrazine-2-carbonitrile], the IC50 worked out at 0.085 nM at Chk-1 kinase and 1800 nM in the assay with MIA PaCa-2 cells (setting [1]). In addition, in the assay on MIA PaCa-2 cells (MIA PaCa-2 cells, 72 h), the “10xLS” value was found to be 100 nM. The “2xLS” value with MIA PaCa-2 cells (MIA PaCa-2 cells, 72 h) is less than 3 nM.

`COc1cc(C2CCN(C(=O)CN(C)C)CC2)ccc1-c1cc(Nc2cnc(C#N)cn2)n[nH]1` [Example 17, 5-[[5-[4-[1-[2-(Dimethylamino)acetyl]-4-piperidyl]-2-methoxy-phenyl]-1H-pyrazol-3-yl]amino]pyrazine-2-carbonitrile hydrochloride]: at Chk-1 kinase, the IC50 stood at 0.29 nM. The IC50 in the assay on MIA PaCa-2 cells (setting [2]) worked out at 1820 nM. In the assay with MIA PaCa-2 cells (MIA PaCa-2 cells, 72 h), the “10xLS” value turned out to be 300 nM and the “2xLS” value is 10 nM.

The IC50 is the concentration needed to halve the response being measured.
